Experimental data reported in PMC6430500, “3-Fluoro-4-hydroxyprolines: Synthesis, Conformational Analysis, and Stereoselective Recognition by the VHL E3 Ubiquitin Ligase for Targeted Protein Degradation” (Journal of the American Chemical Society, 2018).

Assays:
Type in all cases: binding
VBC = molecular target: T1, VBC (Homo sapiens, UniProt P40337); assay: ITC of PROTACs, binary complex PROTAC–VBC; settings: for ΔG / ΔH / –TΔS / Kd: PROTAC in cell, VBC in syringe; for Kd: mean ± SEM
T1 construct: VHL (54–213), ElonginC (17–112) and; His6 (N, cleaved yes); made in house; host or cells: Escherichia coli BL21(DE3)
Source text: (§1) structure (C2 R, C3 S, C4 R) assumed on the basis of unchanging stereogenic centres in the synthesis.
(§2) Final R(F) = 0.033, wR(F 2) = 0.085 for 275 parameters and 3901 reflections with I > 2σ(I) (corresponding R-values based on all 4067 reflections = 0.035 and 0.086, respectively), CCDC […]
(§3) Protein expression and purification.
(§4) Wild-type versions of human proteins VHL (UniProt accession number: P40337), ElonginC […]
(§5) expression. For expression of VBC, N-terminally His6-tagged VHL (54–213), ElonginC (17–112) and ElonginB (1–104) were co- expressed in Escherichia coli BL21(DE3) at 24 °C for 16 h using 0.3 mM isopropyl β-D -1-thiogalactopyranoside (IPTG). E. coli cells were lysed using a pressure cell homogenizer (Stansted Fluid Power) and lysate clarified by centrifugation. His6-tagged VCB was purified on a HisTrap FF affinity column (GE Healthcare) by elution with an imidazole gradient. The His6tag was removed using TEV protease and the untagged complex dialyzed into low -concentration imidazole buffer. VCB was then flowed through the HisTrap FF column a second time, allowing impurities to bind, as the complex eluted without binding. VCB was then additionally purified by anion exchange and size-exclusion chromatography using ResourceQ and Superdex-75 columns (GE Healthcare), respectively. The final purified complex was stored in 20 mM Bis–Tris, pH 7, 150 mM sodium chloride and 1 mM dithiothreitol (DTT). Brd2BD1 (71–194), and Brd4BD2 (333–460) were expressed with an N-terminal His6 tag in E. coli BL21(DE3) at 18 °C for 20 h using 0.2 mM IPTG.
(§6) His6-tagged BDs were purified on nickel Sepharose 6 fast flow beads (GE Healthcare) by elution with increasing concentrations of imidazole. For crystallography the His6-tagged BD was cleaved with TEV protease and dialyzed into low-concentration imidazole buffer. The BD was then flowed over the nickel beads a second time to remove impurities and protease. BDs were then additionally purified by size-exclusion chromatography using a Superdex-75 column. The BDs were purified by size-exclusion chromatography using a Superdex-75 column. The final purified proteins were stored in 20 mM 4-(2-hydroxyethyl)-1-piperazineethanesulfonic acid (HEPES), pH 7.5, 150 mM sodium chloride and 1 mM DTT. All chromatography purification steps were performed using Äkta FPLC purification systems (GE Healthcare) or glass econo-columns (Bio-Rad) at room temperature.
(§7) Isothermal titration calorimetry (ITC) of peptides and ligands
(§8) Titrations were performed on an ITC200 micro-calorimeter (GE Healthcare). The peptides were dissolved in buffer (20 mM Bis–Tris propane, 100 mM NaCl, 1 mM tris(2-carboxyethyl)phosphine […]
(§9) (TCEP), pH 7.4) at 100 µM. The compounds were titrated against 10 µM VBC complex, equilibrated in the same buffer. The titrations consisted of 20 injections of 2 µL of peptide solution at a rate of 0.5 µL/s at 120 s time intervals. An initial injection of ligand (0.4 µL) was made and discarded during data analysis. All experiments were performed at 25°C while stirring at 650 rpm.
(§10) Ligands 14a- b were diluted from DMSO stock solution to 300 µM in buffer (20 mM Bis-Tris propane, 150 mM NaCl, 1 mM TCEP, pH 7.4). The compounds were titrated against 30 µM VBC complex, equilibrated in the same buffer. The final concentration of DMSO in each experiment was […]
(§11) The data were fitted to a single-binding-site model using the MicroCal PEAQ-ITC analysis software provided by the manufacturer to obtain the stoichiometry n, the dissociation constant K d, and the enthalpy of binding ΔH . The reported values are the mean ± s.e.m. from independent measurements.
(§12) Isothermal titration calorimetry (ITC)of PROTACs
(§13) The titrations were all performed as reverse mode (protein in syringe, ligand in cell) and consisted of 19 injections of 2 µl protein solution (20 mM Bis–Tris propane, 100 mM NaCl, 1 mM tris(2-carboxyethyl)phosphine (TCEP), pH 7.4) at a rate of 0.5 µl/s at 120 s time intervals. An initial injection (0.4 µl) was made and discarded during data analysis. […]

VBC and Brd2BD1 = molecular target: T2, VBC and Brd2BD1 (Homo sapiens, UniProt P25440+P40337); assay: ITC ternary complex formation, VBC titrated into PROTAC:Brd2BD1; settings: for α (cooperativity): Kd binary,VBC/Kd ternary; for α (cooperativity) / ΔΔG: Brd2BD1; for Kd / ΔG / ΔH / –TΔS: PROTAC:Brd2BD1 in cell, VBC in syringe; for ΔΔG: ternary vs binary
T2 construct: VHL (54–213), ElonginC (17–112) and; Brd2BD1 (71–194),; His6 (N, cleaved yes); made in house; host or cells: E. coli BL21(DE3)
Source text: as §1, §2, §3, §4, §5, §6, §7, §8, §9, §10, §11, §12, §13

Brd2BD1 = molecular target: T3, Brd2BD1 (Homo sapiens, UniProt P25440); assay: ITC of PROTACs, binary titration with Brd2BD1; settings: PROTAC in cell, Brd2BD1 in syringe
T3 construct: Brd2BD1 (71–194),; made in house; host or cells: E. coli BL21(DE3)
Source text: as §1, §2, §3, §4, §5, §6, §7, §8, §9, §10, §11, §12, §13

T1 sequence (P40337 54-213): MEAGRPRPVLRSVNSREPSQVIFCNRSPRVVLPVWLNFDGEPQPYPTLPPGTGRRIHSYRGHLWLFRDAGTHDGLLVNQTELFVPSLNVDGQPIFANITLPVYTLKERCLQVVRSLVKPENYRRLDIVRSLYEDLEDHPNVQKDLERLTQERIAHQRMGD
T1 sequence (Q15369 17-112 partner limits assumed): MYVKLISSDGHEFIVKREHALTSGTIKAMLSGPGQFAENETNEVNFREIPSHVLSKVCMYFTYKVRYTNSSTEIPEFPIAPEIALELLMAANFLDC
T1 sequence (Q15370 1-104 partner limits assumed): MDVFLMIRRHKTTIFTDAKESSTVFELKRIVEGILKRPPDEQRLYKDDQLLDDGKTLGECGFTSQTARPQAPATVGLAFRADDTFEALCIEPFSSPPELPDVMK
T2 sequence (P40337 54-213): as the sequence (P40337 54-213) above
T2 sequence (Q15369 17-112 partner limits assumed): as the sequence (Q15369 17-112 partner limits assumed) above
T2 sequence (Q15370 1-104 partner limits assumed): as the sequence (Q15370 1-104 partner limits assumed) above
T2 sequence (P25440 71-194): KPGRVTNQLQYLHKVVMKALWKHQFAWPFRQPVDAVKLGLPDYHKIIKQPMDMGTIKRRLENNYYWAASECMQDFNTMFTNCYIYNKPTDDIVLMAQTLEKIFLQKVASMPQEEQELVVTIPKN
T3 sequence (P25440 71-194): as above

ΔG (VBC) | ΔH (VBC) | –TΔS (VBC) | Kd (VBC) | α (cooperativity) (VBC and Brd2BD1) | Kd (VBC and Brd2BD1) | ΔG (VBC and Brd2BD1) | ΔH (VBC and Brd2BD1) | –TΔS (VBC and Brd2BD1) | ΔΔG (VBC and Brd2BD1) | Kd (Brd2BD1) | ΔG (Brd2BD1) | ΔH (Brd2BD1) | –TΔS (Brd2BD1) | fold weaker ligand for VBC (VBC; 15b compared to 15a) | SMILES
-9.01 ± 0.02 kcal/mol | -7.9 ± 0.3 kcal/mol | -1.1 ± 0.2 kcal/mol | 249 ± 6 nM | 3.9 | 64 ± 3 nM | -9.85 ± 0.05 kcal/mol | -9.17 kcal/mol | -0.6 ± 0.6 kcal/mol | -0.85 kcal/mol | 97 ± 0.6 nM | -9.57 ± 0.01 kcal/mol | -13.7 ± 0.3 kcal/mol | 4.2 ± 0.3 kcal/mol | – | Cc1ncsc1-c1ccc(CNC(=O)[C@@H]2[C@@H](F)[C@@H](O)CN2C(=O)[C@@H](NC(=O)COCCOCCOCCNC(=O)C[C@@H]2N=C(c3ccc(Cl)cc3)c3c(sc(C)c3C)-n3c(C)nnc32)C(C)(C)C)cc1 [15a]
-8.49 ± 0.07 kcal/mol | -5.0 ± 0.2 kcal/mol | -3.7 ± 0.2 kcal/mol | 603 ± 74 nM | 1.2 | 500 ± 96 nM | -8.6 ± 0.1 kcal/mol | -5.1 ± 0.2 kcal/mol | -3.6 ± 0.3 kcal/mol | -0.1 ± 0.1 kcal/mol | 111 ± 6 nM | -9.49 ± 0.03 kcal/mol | -14.1 ± 0.6 kcal/mol | 4.9 ± 0.6 kcal/mol | 2.5 fold | Cc1ncsc1-c1ccc(CNC(=O)[C@@H]2[C@H](F)[C@@H](O)CN2C(=O)[C@@H](NC(=O)COCCOCCOCCNC(=O)C[C@@H]2N=C(c3ccc(Cl)cc3)c3c(sc(C)c3C)-n3c(C)nnc32)C(C)(C)C)cc1 [15b]
